Experimental data published in patent US4474748A, “Medicaments potentiated with phenyl alkanols” (priority 1981, dated 1984).
Like-named read-outs stand apart in the source and are kept apart here.

Legend:
Staphylococcus aureus = assay: Topical staphylococcal infection in rats; format: in vivo, Staphylococcus aureus in rats; conditions: for Abscess formation (share of animals): topical staphylococcal infection
Text: In tests and operative techniques carried out according to the procedure set forth in F. Goldschmidt, Reproducible Topical Staphylococcal Infection in Rats, Applied Microbiology, 23, No. 1, p.

P. aeruginosa = assay: Bactericidal (killing) efficacy in the presence of citrated human blood, P. aeruginosa; format: cell-based; conditions: Table I, 40% ethanol
Description: (§1) A series of the following four solutions was prepared in accordance with the foregoing procedure: […]

S. aureus = assay: Bactericidal (killing) efficacy in the presence of citrated human blood, S. aureus; format: cell-based; conditions: Table II
Description: as §1

C. acnes = assay: Bactericidal (killing) efficacy in the presence of citrated human blood, C. acnes; format: cell-based; conditions: Table II
Text: In a similar manner, additional antimicrobial compositions of this invention have been tested and a summary of the test results appears in Table II.

intact human skin = conditions: alcohol potentiators 10%
Description: To illustrate the enhanced penetration of the topical compositions of the invention, the following formulation was employed to prepare compositions which were then tested in a standardized skin blanching test wherein the degree of blanching corresponds to the degree of penetration.

C. albicans = assay: Killing efficacy in the presence of citrated human blood, C. albicans; format: cell-based
Description: as §1

[1] = preparation containing 20% benzocaine; intact skin; cited from earlier work
[2] = stratum corneum; previous studies; cited from earlier work

With CCC(O)C1CCCCC1 (stereo not drawn) [1-Cyclohexyl-1-propanol, 1-cyclohexyl-1-propanol] the “Recoverable Staphylococcus aureus” value (Staphylococcus aureus; 3.0%, alone, rats) was ≥ 10^6 cells per gram of excised body wall and the “Abscess formation (share of animals)” value (Staphylococcus aureus; rats) was 100%.

For CCCC(C)C(C)(C)O (stereo not drawn) [2,3-Dimethyl-2-hexanol, 2,3-dimethyl-2-hexanol], the “Number of Cells Survived” value (P. aeruginosa; contact time 1 minute) was 8.5 × 10^6 cells, the “Number of Cells Survived” value (P. aeruginosa; contact time 10 minutes) was 7.6 × 10^6 cells and the “Number of Cells Survived” value (P. aeruginosa; contact time 30 minutes) was 5.1 × 10^6 cells.

With OCCC1CCCCC1 [2-Cyclohexylethanol, 2-cyclohexylethanol] the “Number of Cells Survived” value (P. aeruginosa; contact time 1 minute) was 1.1 × 10^6 cells, the “Number of Cells Survived” value (P. aeruginosa; contact time 10 minutes) was 7.8 × 10^4 cells and the “Number of Cells Survived” value (P. aeruginosa; contact time 30 minutes) was 4.8 × 10^4 cells.

In the case of O=C(Nc1ccc(Cl)cc1)Nc1ccc(Cl)c(Cl)c1 [3,4,4'-Chlorocarbanilide], the “Number of Cells Survived” value (S. aureus; 0.05%, 1 minute) is reported as 6.1 × 10^7 cells, the “Number of Cells Survived” value (S. aureus; 0.05%, 10 minutes) is reported as 5.2 × 10^7 cells and the “Number of Cells Survived” value (S. aureus; 0.05%, 30 minutes) is reported as 3.0 × 10^7 cells.

In the case of O=c1[nH]c(=O)n([C@H]2C[C@H](O)[C@@H](CO)O2)cc1I [5-iodo-2-deoxyuridine], the “Number of Cells Survived” value (S. aureus; 0.2%, 1 minute) is reported as 30 × 10^7 cells, the “Number of Cells Survived” value (S. aureus; 0.2%, 10 minutes) is reported as 30 × 10^7 cells and the “Number of Cells Survived” value (S. aureus; 0.2%, 30 minutes) is reported as 30 × 10^7 cells.

With CCCCCCCCCCCCC[N+](C)(C)Cc1ccccc1 [Benzalkonium chloride] the “Number of Cells Survived” value (S. aureus; 0.05%, 1 minute) was 9.0 × 10^5 cells, the “Number of Cells Survived” value (S. aureus; 0.05%, 10 minutes) was 1.0 × 10^5 cells and the “Number of Cells Survived” value (S. aureus; 0.05%, 30 minutes) was 2.9 × 10^3 cells.

In the case of N[C@@H]1CON=C1O [Cycloserine], the “Number of Cells Survived” value (S. aureus; 0.0125%, 1 minute) is reported as 60 × 10^7 cells, the “Number of Cells Survived” value (S. aureus; 0.0125%, 10 minutes) is reported as 60 × 10^7 cells and the “Number of Cells Survived” value (S. aureus; 0.0125%, 30 minutes) is reported as 60 × 10^7 cells.

For Cc1cc(N)c2ccccc2[n+]1CCCCCCCCCC[n+]1c(C)cc(N)c2ccccc21 [Dequalinium chloride], the “Number of Cells Survived” value (C. acnes; 0.00125%, 1 minute) was 26 × 10^5 cells, the “Number of Cells Survived” value (C. acnes; 0.00125%, 10 minutes) was 14 × 10^2 cells and the “Number of Cells Survived” value (C. acnes; 0.00125%, 30 minutes) was 30 cells.

For CCCCCCCCCCCC[N+](C)(C)CCOc1ccccc1 [Domiphen bromide], the “Animals from which S. aureus could be recovered” value (Staphylococcus aureus; 10^5 or more cells per gram of excised body wall) was 82.3% and the “Abscess formation (share of animals)” value (Staphylococcus aureus; rats) was 82.3%.

With CNC[C@H](O)c1ccc(O)c(O)c1 [Epinephrine (E)] the “Skin blanching score (penetration of epinephrine)” value (from here on “Skin blanching score”) (intact human skin; 10 min after application) was 0, the “Skin blanching score” value (intact human skin; 20 min after application) was 0-1 and the “Skin blanching score” value (intact human skin; 30 min after application) was 0. The “Skin blanching score” value (intact human skin; 40 min after application) was 0, the “Skin blanching score” value (intact human skin; 50 min after application) was 0 and the “Skin blanching score” value (intact human skin; 60 min after application) was 0.

With CC[C@H]1OC(=O)[C@H](C)[C@@H](O[C@H]2C[C@@](C)(OC)[C@@H](O)[C@H](C)O2)[C@H](C)[C@@H](O[C@@H]2O[C@H](C)C[C@H](N(C)C)[C@H]2O)[C@](C)(O)C[C@@H](C)C(=O)[C@H](C)[C@@H](O)[C@]1(C)O [Erythromycin] the “Number of Cells Survived” value (S. aureus; 0.025%, 1 minute) was 4.9 × 10^7 cells, the “Number of Cells Survived” value (S. aureus; 0.025%, 10 minutes) was 4.6 × 10^7 cells and the “Number of Cells Survived” value (S. aureus; 0.025%, 30 minutes) was 4.3 × 10^ 7 cells. For the same compound, the “Number of Cells Survived” value (C. albicans; Table II, 0.025%, 1 minute) was 7.2 × 10^8 cells, the “Number of Cells Survived” value (C. albicans; Table II, 0.025%, 10 minutes) was 7.1 × 10^8 cells and the “Number of Cells Survived” value (C. albicans; Table II, 0.025%, 30 minutes) was 9.2 × 10^7 cells. The “Number of Cells Survived” value (C. acnes; 0.0125%, 1 minute) was 22 × 10^5 cells, the “Number of Cells Survived” value (C. acnes; 0.0125%, 10 minutes) was 21 × 10^5 cells and the “Number of Cells Survived” value (C. acnes; 0.0125%, 30 minutes) was 18 × 10^5 cells.

In the case of COC1=CC(=O)C[C@@H](C)[C@]12Oc1c(Cl)c(OC)cc(OC)c1C2=O [Griseofulvin], the “Number of Cells Survived” value (C. acnes; 0.0125%, 1 minute) is reported as 94 × 10^5 cells, the “Number of Cells Survived” value (C. acnes; 0.0125%, 10 minutes) is reported as 99 × 10^5 cells and the “Number of Cells Survived” value (C. acnes; 0.0125%, 30 minutes) is reported as 92 × 10^5 cells.

With N=C(NCCCCCCNC(=N)NC(=N)Nc1ccc(Cl)cc1)NC(=N)Nc1ccc(Cl)cc1 [Hibitane] the “Number of Cells Survived” value (C. acnes; 0.0125%, 1 minute) was 45 × 10^6 cells, the “Number of Cells Survived” value (C. acnes; 0.0125%, 10 minutes) was 51 × 10^5 cells and the “Number of Cells Survived” value (C. acnes; 0.0125%, 30 minutes) was 0 cells.

With CO[C@H]1/C=C/O[C@@]2(C)Oc3c(C)c(O)c4c(O)c(c(/C=N/N5CCN(C)CC5)c(O)c4c3C2=O)NC(=O)/C(C)=C\C=C\[C@H](C)[C@H](O)[C@@H](C)[C@@H](O)[C@@H](C)[C@H](OC(C)=O)[C@@H]1C [Rifampicin] the “Number of Cells Survived” value (C. acnes; 0.0125%, 1 minute) was 17 × 10^6 cells, the “Number of Cells Survived” value (C. acnes; 0.0125%, 10 minutes) was 17 × 10^6 cells and the “Number of Cells Survived” value (C. acnes; 0.0125%, 30 minutes) was 13 × 10^6 cells.

With O=C(Nc1ccc(Br)cc1)c1cc(Br)cc(Br)c1O [Temasept IV, 3,4',5tribromosalicylanilide] the “Number of Cells Survived” value (S. aureus; 0.05%, 1 minute) was 4.2 × 10^8 cells, the “Number of Cells Survived” value (S. aureus; 0.05%, 10 minutes) was 4.0 × 10^8 cells and the “Number of Cells Survived” value (S. aureus; 0.05%, 30 minutes) was 1.2 × 10^8 cells.

With CN(C)C1C(=O)C(C(N)=O)=C(O)C2(O)C(=O)C3=C(O)c4c(O)cccc4C(C)(O)C3CC12 (stereo not drawn) [Tetracycline] the “Number of Cells Survived” value (S. aureus; 0.05%, 1 minute) was 4.2 × 10^8 cells, the “Number of Cells Survived” value (S. aureus; 0.05%, 10 minutes) was 4.1 × 10^8 cells and the “Number of Cells Survived” value (S. aureus; 0.05%, 30 minutes) was 3.8 × 10^7 cells. The “Number of Cells Survived” value (C. albicans; Table II, 0.05%, 1 minute) was 4.3 × 10^7 cells, the “Number of Cells Survived” value (C. albicans; Table II, 0.05%, 10 minutes) was 3.9 × 10^7 cells and the “Number of Cells Survived” value (C. albicans; Table II, 0.05%, 30 minutes) was 3.6 × 10^7 cells.

In the case of [O-][n+]1ccccc1[S-].[O-][n+]1ccccc1[S-].[Zn+2] [Zn--omadine], the “Number of Cells Survived” value (C. albicans; Table I, contact time 1 minute, human blood, 40% ethanol) is reported as 9 × 10^8 cells, the “Number of Cells Survived” value (C. albicans; Table I, contact time 10 minutes, human blood, 40% ethanol) is reported as 8.0 × 10^8 cells and the “Number of Cells Survived” value (C. albicans; Table I, contact time 30 minutes, human blood, 40% ethanol) is reported as 7 × 10^8 cells.

For CCOC(=O)c1ccc(N)cc1 [benzocaine], the “Surface anesthesia” value [1] is listed as “effective to cause surface anesthesia”.

For C[S+](C)[O-] [dimethylsulfoxide (DMSO), dimethylsulfoxide], the “Absorption of topically applied drugs” value [2] is given as “can enhance the absorption of topically applied drugs through the stratum corneum”.
